Experimental data taken from PubChem BioAssay (NCI).
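How tested: cells in 96-well plates exposed to compound for 48 hours at five concentrations. GI50 = concentration required for 50% inhibition of growth. Definition used: TGI = concentration required for complete inhibition of growth.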

What was measured:
Test in all cases: NCI-60 cell line screen, 48 h
[1] = system: ACHN renal
[2] = system: CAKI-1 renal
[3] = system: HOP-62 NSCLC
[4] = system: K-562 leukemia
[5] = system: MCF7 breast
[6] = system: MDA-MB-435
[7] = system: MOLT-4 leukemia
[8] = system: PC-3 prostate
[9] = system: RXF 393 renal
[10] = system: SN12C renal

Structure (SMILES)	GI50 [1]	TGI [1]	GI50 [2]	GI50 [3]	TGI [3]	GI50 [4]	TGI [4]	GI50 [5]	TGI [5]	GI50 [6]	TGI [6]	GI50 [7]	TGI [7]	GI50 [8]	TGI [8]	GI50 [9]	TGI [9]	GI50 [10]	TGI [2]	TGI [10]
C#CC1(O)C(COP(=O)(O)OCC2OC(n3cc(F)c(=O)[nH]c3=O)CC2O)OC(n2ccc(N)nc2=O)C1O (stereo not given)	0.0469 µM	> 100 µM	< 0.01 µM	< 0.0328 µM	1.28 µM	< 0.01 µM	> 100 µM	< 0.01 µM	> 100 µM	< 0.01 µM	0.181 µM	< 0.01 µM	0.0124 µM	< 0.0305 µM	> 69 µM	< 0.0387 µM	1.48 µM	< 0.01 µM		
COc1cc(-c2nc3ccccc3o2)cc(CN2CCCCC2)c1O	8.96 µM	83.8 µM	14.3 µM	2.58 µM	9.96 µM	8.18 µM	> 100 µM	1.58 µM	4.34 µM	1.7 µM	3.53 µM	4.99 µM	37.4 µM	0.664 µM	> 100 µM	17.1 µM	52 µM	1.5 µM	> 100 µM	4.25 µM
N#Cc1nc(C#N)c(Sc2ccccc2)c(Sc2ccccc2)c1Sc1ccccc1	0.395 µM	1.79 µM	1.22 µM		> 20 µM	1.55 µM	> 29.9 µM	0.565 µM	2.41 µM	0.684 µM	7.17 µM	0.317 µM		0.753 µM	21.5 µM	0.98 µM	3.22 µM	0.191 µM	> 100 µM	0.378 µM
CC(=O)/C(Br)=C/c1ccc(Br)o1	9.5 µM	22.2 µM	6.05 µM	24.6 µM	59.2 µM	2.99 µM	> 36.5 µM	3.67 µM	14.4 µM	8.51 µM	23.2 µM	3.03 µM	15.3 µM	8.94 µM	27.1 µM	2.86 µM	11 µM	8.11 µM	12.4 µM	26.7 µM
COS(C)(=O)=O		> 2 µM			> 2 µM		> 2 µM		> 2 µM		> 2 µM		> 2 µM		> 2 µM		> 2 µM		> 2 µM	> 2 µM
Oc1[nH]c2ccccc2c1/C=c1/ccc2c(c1)N=C(c1ccc(C(F)(F)F)cc1)N=2	3.24 µM	17.4 µM	3.11 µM	4.94 µM	15.6 µM	1.41 µM	3.46 µM	2.98 µM	12.9 µM	1.17 µM	5.69 µM	1.67 µM	3.94 µM	1.54 µM	3.75 µM	2.21 µM	4.32 µM	6.91 µM	13.6 µM	20.6 µM
CCN(CC)c1ccc(-c2cc(-c3cc(OC)c(OC)c(OC)c3)nc(N3CCC(O)CC3)c2C#N)cc1	0.406 µM	> 42.5 µM	0.0334 µM	1.01 µM	11.9 µM	0.353 µM	2.13 µM	0.628 µM		0.272 µM	1.12 µM	0.621 µM	5.17 µM	0.713 µM	> 100 µM	0.193 µM	2.93 µM	0.626 µM	0.708 µM	3.19 µM
O=C(/C=C/c1ccccn1)c1ccc(OCc2nnc(-c3ccc(Cl)cc3)o2)cc1	1.66 µM	3.11 µM	1.69 µM	2.26 µM	5.65 µM	2 µM	4.8 µM	0.378 µM	1.68 µM	1.71 µM	3.6 µM	2.91 µM	6.68 µM	1.87 µM	3.9 µM	1.7 µM	3.17 µM	2.41 µM	3.24 µM	5.8 µM
NC(Cc1c[nH]c2ccc([N+](=O)[O-])cc12)C(=O)O (stereo not given)		> 100 µM			> 100 µM		> 100 µM		> 100 µM		> 100 µM		> 100 µM		> 100 µM		> 100 µM		> 100 µM	> 100 µM
O=C(Nc1cc(Cl)cc(Cl)c1)c1cccc(NC2=C(Cl)C(=O)N(Cc3ccccc3)C2=O)c1	31.9 µM	> 100 µM	30.3 µM	37.4 µM	> 100 µM	7.89 µM	> 100 µM	21.7 µM	> 100 µM	21.8 µM	88.1 µM	4.15 µM	> 100 µM	19.6 µM	> 100 µM	18.9 µM	> 100 µM	40 µM	> 100 µM	> 100 µM
CCN(CC)CCN1c2nc3ccccc3cc2Sc2cc3ccccc3nc21	2.58 µM	9.29 µM	1.8 µM	1.42 µM	3.06 µM	3.04 µM	> 100 µM	0.75 µM	2.1 µM	1.8 µM	3.97 µM	2.31 µM	6.6 µM	1.71 µM	4.84 µM	3.78 µM	18 µM	2.28 µM	6.11 µM	12.2 µM
COc1ccc(S(=O)(=O)Nc2c(/C=C\c3cc(OC)c(OC)c(OC)c3)ccc(OC)c2O)cc1	0.0693 µM	70.7 µM	0.0516 µM	0.0397 µM	> 100 µM	0.0286 µM	> 100 µM	0.038 µM	> 100 µM	0.019 µM	0.0484 µM	0.0423 µM	> 100 µM	0.0408 µM	> 100 µM	0.0318 µM	21.7 µM	0.0869 µM	79.8 µM	> 100 µM
